| Structure (SMILES) | melting point [°C] |
| --- | --- |
| C#Cc1c[nH]c2ncnc(N3CCCCC3)c12 | 179 to 181 |
| COc1c([N+](=O)[O-])cc2cc(-c3ccc([N+](=O)[O-])cc3)c(=O)oc2c1OC | 219 to 223 |
| O=C(O)C1C2CCC(C2)C1C(F)(F)F (stereo not given) | 87 to 90 |
| O=C1Cc2cccc(Sc3ccccc3Cl)c2N1 | 178 to 180 |
| COC1OCC[C@@H]1NC(=O)[C@H](Cc1ccccc1)NC(=O)OCc1ccccc1 (stereo not given in full) | 140 to 142 |
| CC(=O)c1ccccc1OCc1cccc(S(N)(=O)=O)c1 | 124 to 125 |
| NCCCCNC(=O)COc1ccc2ccccc2c1 | 58 |
| Cc1nn(C)c(-c2ccccc2)c1N | 138 to 139 |
| O=C(CCCN1CCN(c2ccc(CO)c(Cl)c2)CC1)c1ccc(Cl)cc1 | 137 to 139 |
| CC12CCC3=C(CCc4cc(O)ccc43)C1CCC2=O (stereo not given) | 225 to 227 |
| CCn1c(N)c(-c2ncc[nH]2)c(=O)c2ccc(C#CC(O)(c3ccccc3)C(F)(F)F)nc21 (stereo not given) | 260 |
| O=c1ccn2c3ccccc3c3cc(Cl)cc1c32 | 158 to 159 |
| N=C(N)NC(=O)c1cc(-c2cccc(N)c2)nc2ccccc12 | 209 to 210 |
| COc1cc2c(cc1Br)-c1cc3c(n1CC2)C(=O)N(C(C)(C)C)CCC(C)(C)C3 | 175 to 177 |
| ON=Cc1ccccc1OCc1ccc(Cl)cc1 | 122 to 124 |
| OC1CC2(CCNC2)c2ccccc21 (stereo not given) | 155 to 158 |
| COC(=O)c1ccc2cc(CCCc3cc4ccc(C(=O)OC)cc4o3)oc2c1 | 100 to 101 |
| Nc1ccc(C(=O)c2ccccc2)c(F)c1 | 133 to 135 |
| COC(=O)CC/C(C)=C/Cc1c(C#N)c2c(c(C)c1OC)COC2=O | 87 to 88 |
| COc1ccc(C(=O)Nc2cc(NC(=O)c3cccc(Br)c3)ccc2C)cc1OC | 136 to 138 |

| Structure (SMILES) | melting point [°C] |
| --- | --- |
| COCOc1c(-c2ccccc2)sc2ncccc12 | 54 |
| O=c1[nH]c2sc3ccc(C(F)(F)F)cc3c2[nH]c1=O | > 320 |
| COc1cccc(N)c1C#N | 143 to 146 |
| Cc1nc(Sc2ccccn2)sc1CC(=O)O | 140 to 142 |
| CCC(=O)Oc1ccc(C(=O)c2ccc(Sc3ccccc3)cc2)c(O)c1 | 88 to 90 |
| COC(=O)c1cc2c(cc1C#Cc1ccccc1)NC(=O)CC(c1cccc(C#N)c1)=N2 | > 250 |
| CC(=O)SCCC1(C)C(=O)N2CCCC(C(=O)O)N2C1=O (stereo not given) | 142 to 143 |
| COc1ccc(OC)c(S(=O)(=O)c2ccc(Cl)cc2NC(=O)N[C@@H](Cc2ccc(NC(=O)c3c(Cl)cccc3Cl)cc2)C(=O)O)c1 | 180 |
| Cn1nccc1-c1ccc2c(ccn2-c2ccc(F)cc2)c1 | 135 to 137 |
| Cc1nn(C)c2nc(N(CC3CCC3)CC3CC3)c(CN(Cc3cc(C(F)(F)F)cc(C(F)(F)F)c3)c3nnn(C)n3)cc12 | 84 to 85 |
| COc1ccc2ccc3nc(C(N)=O)cn3c2c1 | 273 to 276 |
| CC(C)c1cc(C(=O)Nc2ccc(C(=O)O)c(F)c2)sc1C(C)C | 133 to 135 |
| CCCCOCC(O)COc1ccc(-c2nc(-c3ccc(C)cc3C)nc(-c3ccc(C)cc3C)n2)c(O)c1 (stereo not given) | 80 to 83 |
| COc1cccc(CCCCCCOc2ccc(C(=O)O)c(O)c2)c1OC | 115 to 116 |
| COCCNC(=O)c1c(O)c2cnc(-c3ccccc3)nc2n(CCOC)c1=O | 150 to 154 |
| O=C(O)c1cc2cc([N+](=O)[O-])cc(O)c2o1 | 294 |
| CCOC(=O)c1ccc2snnc2c1 | 74.5 to 77 |
| CCC(CC)CNC(=O)c1ccc2cccc(Cc3ccc(C(=O)NS(=O)(=O)c4ccccc4C)cc3OC)c2c1 | 126 to 128 |
| Cn1cc(C(=O)NCCC2CCN(S(=O)(=O)NC(=O)NC34CC5CC(CC(C5)C3)C4)CC2)c(=O)n(C)c1=O | 224 to 226 |
| CCCc1c2nc(C(=O)OC)cc(Cl)c2cc2c(=O)cc(C(=O)OCC)oc12 | 176 to 178 |

— a melting point compilation (Tetko et al.; mined from patent text by program, amines drawn as free bases though some values may be those of a salt)
